# Experimental data taken from patent US20230165872A1, “COMBINATION OF BCMA-DIRECTED T CELL THERAPY AND AN IMMUNOMODULATORY COMPOUND” (Juno Therapeutics, Inc., priority 2020, published 2023).
# Columns and labels:
# [1] = test system: RPMI-8226 target cells; assay: Rescue: rechallenge of chronically stimulated anti-BCMA CAR T cells with RPMI-8226 in the presence of compound; assay type: cell-based, human
# Method: Anti-BCMA CAR-expressing T cells, produced as described in Example 1, were stimulated with 50 μg BCMA conjugated beads (diameter about 4.5 μm from a 50 μg/ml BCMA-conjugated bead composition) substantially as described in Example 3 to induce chronic stimulation (to produce hypofunctional, exhausted T cells). After the chronic stimulation, the CAR-T cells were rechallenged with RPMI-8226 target cells (labeled with NucLightRed as described in Example 2) at a 1:1 (effector:target) ratio in the presence of (rescued) with Compound A (iberdomide, (S)-3-[4-(4-morpholin-4-ylmethyl-benzyloxy)-1-oxo-1,3-dihydro-isoindol-2-yl]-piperidine-2,6-dione) (1 nM or 10 nM), Compound B ((S)-4-(4-(4-(((2-(2,6-dioxopiperidin-3-yl)-1-oxoisoindolin-4-yl)oxy)methyl)benzyl)piperazin-1-yl)-3-fluorobenzonitrile) (0.1 nM or 1 nM), or DMSO vehicle control.
# Killing activity and cytokine production were assessed as described in Example 3.
# Studies were undertaken to determine whether Compound A (iberdomide, (S)-3-[4-(4-morpholin-4-ylmethyl-benzyloxy)-1-oxo-1,3-dihydro-isoindol-2-yl]-piperidine-2,6-dione) rescued anti-BCMA CAR T cell function following chronic stimulation. To directly stimulate via CAR engagement to induce chronic stimulation of cells, anti-BCMA CAR T cells were stimulated with BCMA conjugated beads (diameter about 4.5 μm from a 50 μg/ml BCMA-conjugated bead composition, generated as described in Example 9) at a ratio of T cells to beads of 1:1. The cells were then incubated at 37° C., 5% CO2 for 7 days.
# Cultures were incubated at 37° C., 5% CO2, and images were taken every 2 hours over 5-7 days with an Essen IncuCyte Zoom live-cell analysis system to track NucLightRed-positive target cells.
# [2] = test system: lymphoma cells; conditions: cited from earlier work
structure (smiles),measurement,setting,value
"O=C1CC[C@H](N2Cc3c(OCc4ccc(CN5CCOCC5)cc4)cccc3C2=O)C(=O)N1 [Compound A, (S)-3-[4-(4-morpholin-4-ylmethyl-benzyloxy)-1-oxo-1,3-dihydro-isoindol-2-yl]-piperidine-2,6-dione]",rescue of chronically activated CAR T cells,"[1]; Example 4: Compound A 1 or 10 nM, Compound B 0.1 or 1 nM during re-challenge",able to rescue chronically activated CAR T cells to improve functionality
same,"cytolytic activity, compound present during re-challenge","[1]; Example 8: E:T 0.3:1, Compound A 1 nm or 10 nM, versus no compound, FIG. 10A",improvement in cytolytic activity
same,production of IFN-gamma,"[1]; Example 8: supernatant at 24 hours, FIG. 10B",increased production
same,production of IL-2,"[1]; Example 8: supernatant at 24 hours, FIG. 10C",increased production
same,production of TNF-alpha,"[1]; Example 8: supernatant at 24 hours, FIG. 10D",increased production
same,direct anti-proliferative effects on lymphoma cells,[2],potent direct anti-proliferative effects
